Series [1] deals with iPSC-derived sensory neurons. The experiment in a line: Vincristine neurotoxicity in iPSC-derived sensory neurons with or without MK-571 or rifampicin. It counts as cell-based, human. The text has this: Sensory neurons were generated from human induced pluripotent stem cells (iPSCs) by implementing the well-established protocol by Chambers et. al. (Nat Biotech 2012). The neuronal differentiation was initiated when iPSCs achieved 70-80% confluency using KSR medium, which contained 82% KnockOut DMEM (Gibco, 10829-018) and 15% KnockOut Serum Replacement (KSR, ThermoFisher, 10828-028), 1% GlutaMAX-I (Gibco, 35050-038), 1% mini-mum essential medium non-essential amino acids (MEM-NEAA, Gibco, 11140-035), 1% P/S and 0.055 mM β-mercaptoethanol (Gibco, 21985023).
On days 0-5, SMAD signaling was inhibited by adding 0.1 μM LDN-193189 (Selleck, S7507) and 10 μM SB-431542 (Selleck, S1067) to the medium. Medium was changed daily, and N2 medium was added with 25% increments every other day starting on day 4 (100% N2 on day 10). N2 medium consists of 97% Neurobasal medium (Gibco, 21103-049) with 1% N2 Supplement (Gibco, 17502-048), 1% B27 Supplement (Gibco, 17504-044) and 1% P/S. On days 2-10, nociceptor induction was initiated with the addition of the three inhibitors, 3 μM CHIR99021 (Selleck, S1263), 10 μM SU5402 (Selleck, S7667) and 10 μM DAPT (Selleck, S2215).
For long-term cultivation starting on day 12, cells were washed with PBS÷ and incubated with Accutase for 30 min to obtain a single-cell suspension. After incubation, the culture plates were gently rocked and cellular clumps were mechanically dissociated by pipetting up and down. The cells were filtered through a 40 μm nylon cell strainer (Corning, 431750) and centrifuged (800 rpm, 5 min, RT). Following resuspension of the pellet, iPSC-SNs were seeded as single cells on PLO/LAM/FN-coated culture plates at a density of 150,000 viable cells/cm^2. […]
Cells were treated with vincristine from 0.001-1 μM for 24 hours and immunolabeled with peripherin antibody. Quantification of network was done using ImageJ and MIPAR. […]

The test system of series [2] is SH-SY5Y-derived neurons. As to the kind of experiment: Neurite number and length in differentiated SH-SY5Y cells after paclitaxel with or without valspodar.
Protocol: (§1) SH-SY5Y cells (94030304, Sigma-Aldrich) were kept in DMEM/F:12 (11320074, ThermoFisher) with 15% heat-inactivated fetal bovine serum (hiFBS, F9665 Sigma-Aldrich), 1% penicillin/streptomycin (p/s) and 2 mM glutamine. Cells were split 1:10-1:20 using 0.05% trypsin-EDTA (10779413, Fisher Scientific) at 70-80% confluence.
(§2) Paclitaxel (T7402, Sigma-Aldrich) was diluted serially in DMSO (D2650, Sigma-Aldrich) and these stock solutions diluted 1:500 to ensure 0.2% DMSO in all samples. […] Valspodar (SML0572, Sigma-Aldrich) were used at a final concentration of 4 μM. Antibody against TUBB3 (MA1-118, ThermoFisher Scientific) was used at 1:1000.
(§3) Briefly, SH-SY5Y cells below passage 15 were seeded at 5-6×10^3 cells/cm^2 in uncoated 6-well plates (day 0 (D0)) and left overnight in growth media. The next day (D1) differentiation was initiated using DMEM/F:12 media with 2.5% hiFBS, 1% p/s, 2 mM glutamine and 10 μM retinoic acid (RA, R2625 Sigma-Aldrich) and media was replaced at D3 and D5. On D7 cells were split 1:1 using 0.05% trypsin-EDTA to uncoated dishes and on D8 hiFBS content was reduced to 1%. On D10 the cells were split 1:1 to extracellular matrix-coated dishes (E0282, Sigma-Aldrich). On D11 media was replaced with the final differentiation media containing neurobasal media (21103049, ThermoFisher) with 1×B27 supplement (17504044, ThermoFisher), 20 mM KCl (10697623, Fisher Scientific), 1% p/s, 1× Glutamax, 50 ng/ml brain-derived neurotrophic factor (BDNF, CST-3897S, Peprotech), 2 mM dibutyryl cyclic AMP (db-cAMP, D0627 Sigma-Aldrich) and 10 μM RA. Media was replaced on D14 and D17 and cells were tested and confirmed as fully differentiated on D18 and used for downstream applications as outlined below.
(§4) Both differentiated and undifferentiated SH-SY5Y cells were fixed using 4% paraformaldehyde. Cells were permeabilized using 0.25% Triton X-100 and unspecific binding was blocked using bovine serum albumin (BSA). Primary antibodies were incubated overnight at 4° C. and secondary antibodies were incubated for one hour at room temperature. Nuclei were stained using 1.5 μM DAPI for 5 minutes. Imaging was performed using a Leica DMI4000B microscope. Neurite morphology was assessed using the ImageJ modules CellCounter and Simple Neurite Tracer. To determine number of neurites per cell, CellCounter was used to count the number of cells with 0, 1, 2 . . . n neurites. Neurite length was determined using Simple Neurite Tracer. For both endpoints, at least five images of each condition from three separate differentiations were used. ImageJ analysis was blinded to the person assessing length and number of neurites to ensure no bias. […]
For series [3], the system named is paclitaxel treated patients with breast or ovarian cancer. The experiment in a line: Paclitaxel dose modification due to peripheral neuropathy in patients using P-gp inhibitors (logistic regression). Type of series: in vivo, human. As to conditions: for Multivariate analysis Odds-ratio of paclitaxel dose modification due to peripheral neuropathy: adjusted for age, body surface, tumor type, cancer stage, treatment schedule and previous chemotherapy; for Univariate analysis Odds-ratio of paclitaxel dose modification due to peripheral neuropathy: concomitant use with paclitaxel, 503 patients database; for increased risk of dose modification due to peripheral neuropathy: paclitaxel-treated patients, text summary of the multivariate analysis. The text has this:
Data were log-transformed to ensure normality of data.
To assess if P-gp inhibition leads to increased risk of peripheral neuropathy we used a previously described database of 503 paclitaxel treated patients with breast or ovarian cancer (Sanchez-Barroso L et al. The Oncologist. 2018 Nov. 23). […] P-gp inhibitors were selected based on two literature reviews (see comments under table 1). From these reviews, we identified drugs listed as P-gp inhibitors (drugs classified as inhibitor in either review), and, within these, strong P-gp inhibitors (drugs classified as inhibitor in both reviews).
The association from univariate and multivariate analysis between paclitaxel dose modification due to peripheral neuropathy and concomitant P-gp inhibitor use is shown in Table 1.

Another series relates to TRPV1. As to the kind of experiment: TRPV1 expression in iPSC-derived sensory neurons (RT-qPCR). It counts as cell-based, human. As to conditions: paclitaxel, dose-dependent.
The subject of series [4] is sensory neurons derived from induced pluripotent stem cells. As to the kind of experiment: Paclitaxel damage in iPSC-derived sensory neurons, peripherin immunolabelling. It counts as cell-based, human. The settings on record: paclitaxel 24 hours.
Protocol: Cells were treated with paclitaxel for 24 hours and immunolabeled using an antibody for peripherin.
Cells were pretreated for 48 hours with 25 μM rifampicin prior to addition of paclitaxel treatment.
Another series addresses T1, P-gp (Homo sapiens, UniProt P08183).
T1 construct: indicated expression of the efflux transporters P-gp and MRP1 in both SH-SY5Y cells and human dorsal root ganglion; endogenous in cells; host or cells: differentiated SH-SY5Y cells (neurons)
As to the kind of experiment: Intracellular paclitaxel concentration (LC-MS/MS) in differentiated SH-SY5Y cells under P-gp inhibition. Type of series: cell-based. The settings on record: 10 μM paclitaxel, 1 hour, P-gp inhibition by 4 μM valspodar, p<0.001.

Series [5] has as its system SH-SY5Y-derived neurons.
Protocol: as §1, §2, §3, §4
For another series, the system named is ATF-3. As to the kind of experiment: ATF-3 expression in iPSC-derived sensory neurons (RT-qPCR). The settings on record: paclitaxel, dose-dependent. Type of series: cell-based, human. (In qPCR the cycle at which signal appears reflects the starting amount.)
The mark [6] stands for this setting: vincristine 0.001-1 μM, 24 hours.

Structures are written as SMILES.

T1 sequence (P08183 whole entry): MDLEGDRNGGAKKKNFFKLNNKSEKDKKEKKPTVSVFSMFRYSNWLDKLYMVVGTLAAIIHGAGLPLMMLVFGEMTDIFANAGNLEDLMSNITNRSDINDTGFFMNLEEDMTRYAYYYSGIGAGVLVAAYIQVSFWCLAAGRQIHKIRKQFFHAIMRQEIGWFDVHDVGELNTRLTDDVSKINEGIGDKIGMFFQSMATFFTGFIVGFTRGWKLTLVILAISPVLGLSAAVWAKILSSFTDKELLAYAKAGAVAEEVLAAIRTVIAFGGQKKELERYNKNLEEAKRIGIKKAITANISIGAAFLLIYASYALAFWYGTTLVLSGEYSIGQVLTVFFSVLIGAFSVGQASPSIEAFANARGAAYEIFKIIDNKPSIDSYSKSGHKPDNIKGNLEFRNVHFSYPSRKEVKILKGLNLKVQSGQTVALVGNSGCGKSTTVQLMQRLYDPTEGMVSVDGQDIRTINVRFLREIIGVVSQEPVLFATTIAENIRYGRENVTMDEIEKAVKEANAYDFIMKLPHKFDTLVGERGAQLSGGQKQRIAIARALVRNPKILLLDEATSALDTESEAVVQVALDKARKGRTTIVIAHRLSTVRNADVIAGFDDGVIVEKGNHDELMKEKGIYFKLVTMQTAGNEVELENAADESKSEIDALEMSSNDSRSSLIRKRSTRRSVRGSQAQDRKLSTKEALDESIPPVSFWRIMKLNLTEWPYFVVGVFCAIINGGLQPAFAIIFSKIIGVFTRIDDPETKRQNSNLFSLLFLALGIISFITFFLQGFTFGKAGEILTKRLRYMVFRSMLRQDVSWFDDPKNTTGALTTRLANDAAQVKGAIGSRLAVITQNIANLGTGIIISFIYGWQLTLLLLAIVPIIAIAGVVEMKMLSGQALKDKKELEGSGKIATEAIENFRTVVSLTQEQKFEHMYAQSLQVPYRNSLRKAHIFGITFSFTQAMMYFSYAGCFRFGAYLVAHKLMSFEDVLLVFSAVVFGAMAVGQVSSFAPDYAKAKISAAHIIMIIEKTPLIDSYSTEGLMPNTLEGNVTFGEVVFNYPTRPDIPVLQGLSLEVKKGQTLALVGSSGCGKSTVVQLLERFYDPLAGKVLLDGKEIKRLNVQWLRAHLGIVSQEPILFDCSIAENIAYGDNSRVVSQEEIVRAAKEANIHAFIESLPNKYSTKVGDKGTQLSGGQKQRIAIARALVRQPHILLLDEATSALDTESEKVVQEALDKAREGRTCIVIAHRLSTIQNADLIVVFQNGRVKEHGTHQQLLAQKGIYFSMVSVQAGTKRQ
Protocol for ATF-3: (§5) Induced pluripotent stem cells were differentiated to sensory neurons for 35-40 days as described above. Rifampicin was added 48 hours ahead of paclitaxel to increase expression of efflux transporters. Expression levels was determined using real-time qualitative polymerase chain reaction (RT-qPCR) for TRPV1 and ATF-3.
Protocol for TRPV1: as §5

`CN(C)C(=O)CCSC(SCCC(=O)O)c1cccc(/C=C/c2ccc3ccc(Cl)cc3n2)c1` (centres unmarked) [MK-571]: the “effect of MRP1 inhibition on vincristine neurotoxicity” value in series [1] (4 μM MK-571 one hour ahead of vincristine, low vincristine concentrations) is “substantially increased neurotoxicity”.

Regarding `C/C=C/C[C@@H](C)C(=O)[C@H]1C(=O)N[C@@H](C(C)C)C(=O)N(C)CC(=O)N(C)[C@@H](CC(C)C)C(=O)N[C@@H](C(C)C)C(=O)N(C)[C@@H](CC(C)C)C(=O)N[C@@H](C)C(=O)N[C@H](C)C(=O)N(C)[C@@H](CC(C)C)C(=O)N(C)[C@@H](CC(C)C)C(=O)N(C)[C@@H](C(C)C)C(=O)N1C` [valspodar], in the series on SH-SY5Y-derived neurons [2] (4 μM valspodar alone), the “effect on neuronal morphology without paclitaxel present” value is on record as “did not affect”. The “effect on neuronal toxicity of paclitaxel (number and length of neurites)” value in the series with SH-SY5Y-derived neurons [2] (4 μM valspodar together with paclitaxel, 24 hours, ANOVA p<0.001) is “substantially exacerbated”.

As to `CC(C)c1c(C(=O)Nc2ccccc2)c(-c2ccccc2)c(-c2ccc(F)cc2)n1CC[C@@H](O)C[C@@H](O)CC(=O)O` [Atorvastatin], in series [3], the “Multivariate analysis Odds-ratio of paclitaxel dose modification due to peripheral neuropathy” value was 7.01, the “Univariate analysis Odds-ratio of paclitaxel dose modification due to peripheral neuropathy” value came out at 9.41 and the “increased risk of dose modification due to peripheral neuropathy” value is 7.0 fold.

As to `CCC(C)(C)C(=O)O[C@H]1C[C@@H](C)C=C2C=C[C@H](C)[C@H](CC[C@@H]3C[C@@H](O)CC(=O)O3)[C@H]21` [Simvastatin], in series [3], the “Multivariate analysis Odds-ratio of paclitaxel dose modification due to peripheral neuropathy” value worked out at 0.31, the “Univariate analysis Odds-ratio of paclitaxel dose modification due to peripheral neuropathy” value came out at 0.60 and the “increased risk of dose modification due to peripheral neuropathy” value is “not at increased risk”.

Turning to `CC(=O)O[C@H]1C(=O)[C@@]2(C)[C@H]([C@H](OC(=O)c3ccccc3)[C@]3(O)C[C@H](OC(=O)[C@H](O)[C@@H](NC(=O)c4ccccc4)c4ccccc4)C(C)=C1C3(C)C)[C@]1(OC(C)=O)CO[C@@H]1C[C@@H]2O` [Paclitaxel], in the series with TRPV1, the TRPV1 expression entry is “substantially increased expression”. In series [4], the “damage to sensory neurons” value is “marked damage”. The “increase in intracellular accumulation of paclitaxel on inhibition of P-gp” value on P-gp is on record as greater than 3 fold. In addition, in the series with SH-SY5Y-derived neurons [5], the neurite length result is recorded as “significantly reduced” and the number of neurites result is “significantly reduced”. In the series on ATF-3, the ATF-3 expression entry is “substantially increased expression”.

Regarding `CC[C@]1(O)C[C@H]2CN(CCc3c([nH]c4ccccc34)[C@@](C(=O)OC)(c3cc4c(cc3OC)N(C=O)[C@H]3[C@@](O)(C(=O)OC)[C@H](OC(C)=O)[C@]5(CC)C=CCN6CC[C@]43[C@@H]65)C2)C1` [vincristine], in series [1] (setting [6]), the neurite length result is “shortened in a dose-dependent manner” and the “number of neurites extending from a cluster of sensory neurons” value is recorded as “dose-dependent decrease”.

For the origin of these results see patent US12440469B2, “P-gp inducers as protectors against chemotherapy-induced side effects, such as peripheral neuropathy (CIPN) and hair loss” (Syddansk Universitet, priority 2019, dated 2025).
